The term inhibition denotes the drop in the measured response relative to a control, in per cent. In general, IC50 refers to the point on the concentration scale where inhibition reaches its midpoint.

The target of assay [1] is Sodium-dependent dopamine transporter (Homo sapiens, UniProt Q01959). As to the kind of experiment: GPCRScan assay: inhibition of DAT. Details: radioligand conc. used [nm] 3.6 – 16.0, parental cells stable HEK.
Assay [2] addresses Adenosine Transporter (Cavia porcellus) (UniProt H0V4R7+H0UUG1+H0V3Z5). As to the kind of experiment: Inhibition of Transporter, Adenosine at compound concentration of 10.0 uM in the Eurofins-Panlabs radioligand binding assay (Eurofins_assay_202000). The assay is classed as protein assay. Details: ligand concentration 0.5 nM, non-specific ligand with concentration 5 uM Nitrobenzylthioinosine, incubation time 30 min, incubation temperature 25 C. Particulars: Compound concentration 10.0 uM.

A short description of assay [3]: FLIPR Ca2+ assay (dog TRPA1). More on the design: species or system Canis lupus familiaris.
Assay [4] in a line: FLIPR Ca2+ assay (monkey TRPA1).
In assay [5] the target is Transient receptor potential cation channel subfamily A member 1 (Homo sapiens, UniProt O75762). The assay can be described thus: Ephys (human TRPA1).
Transient receptor potential cation channel subfamily A member 1, sequence (O75762 whole entry): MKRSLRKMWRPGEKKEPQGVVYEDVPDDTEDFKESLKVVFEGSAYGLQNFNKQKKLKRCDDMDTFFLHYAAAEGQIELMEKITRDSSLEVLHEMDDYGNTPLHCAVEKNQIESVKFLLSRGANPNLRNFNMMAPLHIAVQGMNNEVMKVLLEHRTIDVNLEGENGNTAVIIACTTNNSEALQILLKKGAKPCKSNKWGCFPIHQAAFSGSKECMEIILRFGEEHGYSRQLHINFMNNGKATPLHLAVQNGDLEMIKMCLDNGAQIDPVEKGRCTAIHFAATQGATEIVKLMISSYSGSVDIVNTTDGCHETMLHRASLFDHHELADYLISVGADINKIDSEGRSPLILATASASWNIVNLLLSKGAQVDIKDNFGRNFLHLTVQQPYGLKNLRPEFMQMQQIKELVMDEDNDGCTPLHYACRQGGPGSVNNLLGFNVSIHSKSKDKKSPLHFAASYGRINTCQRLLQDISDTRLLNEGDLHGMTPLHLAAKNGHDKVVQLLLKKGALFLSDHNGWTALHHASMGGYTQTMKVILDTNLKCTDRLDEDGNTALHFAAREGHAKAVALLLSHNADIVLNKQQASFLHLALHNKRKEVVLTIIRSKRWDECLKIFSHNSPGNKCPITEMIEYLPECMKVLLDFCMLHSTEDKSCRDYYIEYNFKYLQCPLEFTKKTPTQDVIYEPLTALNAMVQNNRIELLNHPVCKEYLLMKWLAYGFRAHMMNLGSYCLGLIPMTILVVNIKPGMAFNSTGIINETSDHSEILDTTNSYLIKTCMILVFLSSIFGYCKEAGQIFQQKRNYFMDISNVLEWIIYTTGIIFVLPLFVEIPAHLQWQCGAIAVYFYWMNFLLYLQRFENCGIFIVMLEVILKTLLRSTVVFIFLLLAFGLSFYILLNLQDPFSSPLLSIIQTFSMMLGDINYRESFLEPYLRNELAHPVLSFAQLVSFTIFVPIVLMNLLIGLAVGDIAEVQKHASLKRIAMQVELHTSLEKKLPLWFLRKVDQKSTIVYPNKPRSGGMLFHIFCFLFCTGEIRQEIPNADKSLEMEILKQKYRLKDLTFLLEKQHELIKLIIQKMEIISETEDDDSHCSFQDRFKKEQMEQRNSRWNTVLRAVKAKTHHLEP
The target of assay [6] is Short transient receptor potential channel 3 (Homo sapiens, UniProt Q13507). The assay can be described thus: TRP selectivity screen (TRPC3).
Short transient receptor potential channel 3, sequence (Q13507 whole entry): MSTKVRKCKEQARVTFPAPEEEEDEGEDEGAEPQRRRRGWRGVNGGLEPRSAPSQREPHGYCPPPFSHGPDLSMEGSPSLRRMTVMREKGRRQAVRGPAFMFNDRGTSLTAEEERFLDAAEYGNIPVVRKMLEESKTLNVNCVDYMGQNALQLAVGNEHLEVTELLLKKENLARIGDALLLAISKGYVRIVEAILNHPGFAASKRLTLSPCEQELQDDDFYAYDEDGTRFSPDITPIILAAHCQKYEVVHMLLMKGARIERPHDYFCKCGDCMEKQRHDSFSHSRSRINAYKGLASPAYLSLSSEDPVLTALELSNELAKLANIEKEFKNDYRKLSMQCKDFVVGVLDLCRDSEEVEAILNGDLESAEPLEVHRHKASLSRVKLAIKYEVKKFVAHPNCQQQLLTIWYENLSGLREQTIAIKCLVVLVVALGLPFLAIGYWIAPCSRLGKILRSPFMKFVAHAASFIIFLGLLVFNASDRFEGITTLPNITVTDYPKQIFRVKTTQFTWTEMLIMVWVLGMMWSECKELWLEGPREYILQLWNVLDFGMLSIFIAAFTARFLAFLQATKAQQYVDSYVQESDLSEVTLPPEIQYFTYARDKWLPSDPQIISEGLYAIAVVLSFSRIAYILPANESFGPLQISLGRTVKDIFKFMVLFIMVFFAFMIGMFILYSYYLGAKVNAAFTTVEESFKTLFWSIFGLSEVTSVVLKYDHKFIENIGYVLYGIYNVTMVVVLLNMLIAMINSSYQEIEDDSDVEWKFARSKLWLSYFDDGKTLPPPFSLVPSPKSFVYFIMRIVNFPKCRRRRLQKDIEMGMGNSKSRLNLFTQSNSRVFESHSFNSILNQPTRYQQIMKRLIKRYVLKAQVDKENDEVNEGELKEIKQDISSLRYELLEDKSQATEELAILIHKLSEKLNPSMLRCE
The target of assay [7] is Potassium channel subfamily K member 9 (Homo sapiens, UniProt Q9NPC2). As to the kind of experiment: Selectivity screen (KCNK9).
Potassium channel subfamily K member 9, sequence (Q9NPC2 whole entry): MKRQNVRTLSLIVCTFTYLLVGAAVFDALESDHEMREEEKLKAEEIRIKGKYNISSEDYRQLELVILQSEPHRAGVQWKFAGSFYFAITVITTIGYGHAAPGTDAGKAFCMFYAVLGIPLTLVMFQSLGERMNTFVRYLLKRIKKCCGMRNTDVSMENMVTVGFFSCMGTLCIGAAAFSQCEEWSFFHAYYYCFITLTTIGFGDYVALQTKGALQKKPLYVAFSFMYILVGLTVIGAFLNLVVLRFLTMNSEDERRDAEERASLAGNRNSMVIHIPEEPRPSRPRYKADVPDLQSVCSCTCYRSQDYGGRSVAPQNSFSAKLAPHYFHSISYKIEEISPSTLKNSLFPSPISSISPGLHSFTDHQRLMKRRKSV
Assay [8] addresses 5-hydroxytryptamine receptor 1B (Homo sapiens) (UniProt P28222). To be noted: Compound concentration 10.0 uM.
The target of assay [9] is GABA-A receptor; anion channel (Rattus norvegicus) (UniProt O09028+P15431+P18506+P18508+P19969+P20236+P23574+P23576+P28471+P28473+P30191+P62813+P63079+P63138+Q91ZM7+Q9ES14). To be noted: Compound concentration 10.0 uM.
For assay [10], the target named is T1, Alpha-1A adrenergic receptor (Homo sapiens) (UniProt P35348).
T1 sequence (whole entry): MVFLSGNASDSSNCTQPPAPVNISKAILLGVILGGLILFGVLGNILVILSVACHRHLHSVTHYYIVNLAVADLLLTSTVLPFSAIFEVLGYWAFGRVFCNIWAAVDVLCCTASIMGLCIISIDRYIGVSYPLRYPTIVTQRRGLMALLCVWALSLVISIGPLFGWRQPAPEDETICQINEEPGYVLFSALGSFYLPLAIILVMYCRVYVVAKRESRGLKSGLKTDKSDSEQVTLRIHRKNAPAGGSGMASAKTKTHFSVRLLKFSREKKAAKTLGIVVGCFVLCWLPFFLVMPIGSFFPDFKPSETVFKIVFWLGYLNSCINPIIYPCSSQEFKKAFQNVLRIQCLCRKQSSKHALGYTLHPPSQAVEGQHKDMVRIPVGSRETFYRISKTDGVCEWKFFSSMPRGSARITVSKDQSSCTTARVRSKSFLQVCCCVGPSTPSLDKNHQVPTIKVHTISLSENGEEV
Particulars: Rattus norvegicus; Compound concentration 10.0 uM.

In assay [11] the target is T2, Muscarinic acetylcholine receptor M1 (Homo sapiens) (UniProt P11229).
T2 sequence (whole entry): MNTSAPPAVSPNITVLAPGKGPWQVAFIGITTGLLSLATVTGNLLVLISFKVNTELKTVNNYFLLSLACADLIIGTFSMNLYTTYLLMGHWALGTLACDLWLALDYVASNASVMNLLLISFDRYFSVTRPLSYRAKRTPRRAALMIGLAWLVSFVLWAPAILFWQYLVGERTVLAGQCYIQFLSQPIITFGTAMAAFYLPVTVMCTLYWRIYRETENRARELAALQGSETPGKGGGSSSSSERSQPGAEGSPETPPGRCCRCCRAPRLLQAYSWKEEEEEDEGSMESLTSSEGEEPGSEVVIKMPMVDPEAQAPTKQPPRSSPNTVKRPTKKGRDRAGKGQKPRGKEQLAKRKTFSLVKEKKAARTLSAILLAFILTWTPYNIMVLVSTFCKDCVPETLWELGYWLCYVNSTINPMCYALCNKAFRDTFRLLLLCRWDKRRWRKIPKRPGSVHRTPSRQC
Particulars: Compound concentration 10.0 uM.

Assay [12] addresses Purinergic P2Y (Rattus norvegicus) (UniProt O35811+Q9EPX4+P49651+Q63371+P41232+O35881+Q6GUG4). To be noted: Compound concentration 10.0 uM.
Assay [13] has as its target Alpha-2B adrenergic receptor (Homo sapiens) (UniProt P18089). Particulars: Compound concentration 10.0 uM.
The target of assay [14] is T3, Muscarinic acetylcholine receptor M4 (Homo sapiens) (UniProt P08173).
T3 sequence (whole entry): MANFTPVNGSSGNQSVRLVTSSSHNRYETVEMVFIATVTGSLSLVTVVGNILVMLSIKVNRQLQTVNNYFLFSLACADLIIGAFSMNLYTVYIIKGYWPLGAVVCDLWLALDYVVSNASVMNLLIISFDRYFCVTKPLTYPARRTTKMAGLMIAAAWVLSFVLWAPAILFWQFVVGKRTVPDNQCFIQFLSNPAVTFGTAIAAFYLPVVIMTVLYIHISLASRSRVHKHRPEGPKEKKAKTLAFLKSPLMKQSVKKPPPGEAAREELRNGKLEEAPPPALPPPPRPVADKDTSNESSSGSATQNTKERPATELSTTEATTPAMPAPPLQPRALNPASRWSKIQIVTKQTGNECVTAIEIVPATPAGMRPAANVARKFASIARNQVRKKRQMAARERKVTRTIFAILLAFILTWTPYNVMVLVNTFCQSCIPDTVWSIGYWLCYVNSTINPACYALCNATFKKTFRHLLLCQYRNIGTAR
Particulars: Compound concentration 10.0 uM.

Assay [15] deals with T4, Alpha-2C adrenergic receptor (Homo sapiens) (UniProt P18825).
T4 sequence (whole entry): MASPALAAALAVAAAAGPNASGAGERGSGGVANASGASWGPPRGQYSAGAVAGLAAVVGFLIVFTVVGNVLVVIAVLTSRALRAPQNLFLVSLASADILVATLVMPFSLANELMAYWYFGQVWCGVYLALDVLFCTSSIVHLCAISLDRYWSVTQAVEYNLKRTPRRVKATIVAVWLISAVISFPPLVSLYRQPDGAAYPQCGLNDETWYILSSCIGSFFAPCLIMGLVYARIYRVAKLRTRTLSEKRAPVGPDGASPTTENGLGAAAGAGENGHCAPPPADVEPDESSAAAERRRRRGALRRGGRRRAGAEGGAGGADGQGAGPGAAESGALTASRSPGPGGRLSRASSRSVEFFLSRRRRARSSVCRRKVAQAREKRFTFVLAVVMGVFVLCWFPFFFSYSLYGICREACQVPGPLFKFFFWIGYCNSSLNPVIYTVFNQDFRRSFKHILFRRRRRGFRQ
Particulars: Compound concentration 10.0 uM.

For assay [16], the target named is Gamma-aminobutyric acid type B receptor subunit 1 (Homo sapiens) (UniProt Q9UBS5). Particulars: Rattus norvegicus; Compound concentration 10.0 uM.
The target of assay [17] is 5-hydroxytryptamine receptor 1D (Homo sapiens) (UniProt P28221). To be noted: Compound concentration 10.0 uM.
5-hydroxytryptamine receptor 1D (Homo sapiens), sequence (P28221 whole entry): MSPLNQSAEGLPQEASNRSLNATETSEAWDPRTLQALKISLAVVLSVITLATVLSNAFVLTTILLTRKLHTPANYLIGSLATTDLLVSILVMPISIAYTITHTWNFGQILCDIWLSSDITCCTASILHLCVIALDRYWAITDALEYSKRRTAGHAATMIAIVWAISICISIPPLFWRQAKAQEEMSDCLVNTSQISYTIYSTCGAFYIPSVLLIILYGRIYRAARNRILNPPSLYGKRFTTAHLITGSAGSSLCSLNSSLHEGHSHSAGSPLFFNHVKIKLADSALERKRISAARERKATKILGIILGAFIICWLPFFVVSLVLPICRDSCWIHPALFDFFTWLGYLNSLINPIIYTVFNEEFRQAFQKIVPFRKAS
Assay [18] has as its target 5-hydroxytryptamine receptor 1E (Homo sapiens) (UniProt P28566). Particulars: Compound concentration 10.0 uM.
Assay [19] has as its target Alpha-2B adrenergic receptor (Homo sapiens) (UniProt P18089). To be noted: Compound concentration 10.0 uM. This is another data set of the same source.

The structures appear in SMILES notation. The source made the active and inactive calls. No cut-off for these calls is given here.

Alpha-2B adrenergic receptor (Homo sapiens), sequence (P18089 whole entry): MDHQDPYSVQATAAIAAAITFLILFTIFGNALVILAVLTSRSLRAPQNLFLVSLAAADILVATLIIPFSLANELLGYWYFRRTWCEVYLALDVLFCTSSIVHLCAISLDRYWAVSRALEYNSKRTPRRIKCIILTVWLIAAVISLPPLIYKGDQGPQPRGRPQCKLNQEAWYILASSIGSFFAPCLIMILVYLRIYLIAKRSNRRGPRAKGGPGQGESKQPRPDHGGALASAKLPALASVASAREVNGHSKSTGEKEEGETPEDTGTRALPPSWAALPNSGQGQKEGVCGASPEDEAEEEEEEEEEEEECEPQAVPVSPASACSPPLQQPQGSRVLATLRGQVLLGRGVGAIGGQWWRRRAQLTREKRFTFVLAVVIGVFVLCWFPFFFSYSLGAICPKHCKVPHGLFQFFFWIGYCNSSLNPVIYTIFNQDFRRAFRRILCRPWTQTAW
Sodium-dependent dopamine transporter, sequence (Q01959 whole entry): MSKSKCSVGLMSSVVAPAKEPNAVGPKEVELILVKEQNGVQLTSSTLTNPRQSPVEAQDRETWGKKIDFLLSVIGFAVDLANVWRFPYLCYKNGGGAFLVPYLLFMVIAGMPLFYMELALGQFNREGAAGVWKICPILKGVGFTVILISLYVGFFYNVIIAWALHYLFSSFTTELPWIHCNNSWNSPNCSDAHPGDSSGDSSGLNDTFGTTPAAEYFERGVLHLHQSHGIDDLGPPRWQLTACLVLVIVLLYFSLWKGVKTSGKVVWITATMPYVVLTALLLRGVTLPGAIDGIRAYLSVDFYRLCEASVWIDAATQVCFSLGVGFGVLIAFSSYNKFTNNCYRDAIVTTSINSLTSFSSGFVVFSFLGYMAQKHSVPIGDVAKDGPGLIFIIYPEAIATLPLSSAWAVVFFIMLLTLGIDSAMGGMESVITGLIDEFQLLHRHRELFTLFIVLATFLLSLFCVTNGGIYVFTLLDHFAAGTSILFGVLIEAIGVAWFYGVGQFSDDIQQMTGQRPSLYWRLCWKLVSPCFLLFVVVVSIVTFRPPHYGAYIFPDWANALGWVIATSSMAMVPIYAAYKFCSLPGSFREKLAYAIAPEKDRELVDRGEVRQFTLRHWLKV
5-hydroxytryptamine receptor 1B (Homo sapiens), sequence (P28222 whole entry): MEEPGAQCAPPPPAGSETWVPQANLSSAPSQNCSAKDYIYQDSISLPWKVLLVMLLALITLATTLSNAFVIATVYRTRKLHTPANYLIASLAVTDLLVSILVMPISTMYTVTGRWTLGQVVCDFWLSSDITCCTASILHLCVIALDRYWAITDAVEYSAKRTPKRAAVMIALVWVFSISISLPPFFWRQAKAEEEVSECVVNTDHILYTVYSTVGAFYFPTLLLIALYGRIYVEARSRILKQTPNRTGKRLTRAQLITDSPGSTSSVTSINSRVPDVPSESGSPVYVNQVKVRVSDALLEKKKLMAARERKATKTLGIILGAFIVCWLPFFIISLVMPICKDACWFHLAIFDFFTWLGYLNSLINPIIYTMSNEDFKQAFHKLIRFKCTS
5-hydroxytryptamine receptor 1E (Homo sapiens), sequence (P28566 whole entry): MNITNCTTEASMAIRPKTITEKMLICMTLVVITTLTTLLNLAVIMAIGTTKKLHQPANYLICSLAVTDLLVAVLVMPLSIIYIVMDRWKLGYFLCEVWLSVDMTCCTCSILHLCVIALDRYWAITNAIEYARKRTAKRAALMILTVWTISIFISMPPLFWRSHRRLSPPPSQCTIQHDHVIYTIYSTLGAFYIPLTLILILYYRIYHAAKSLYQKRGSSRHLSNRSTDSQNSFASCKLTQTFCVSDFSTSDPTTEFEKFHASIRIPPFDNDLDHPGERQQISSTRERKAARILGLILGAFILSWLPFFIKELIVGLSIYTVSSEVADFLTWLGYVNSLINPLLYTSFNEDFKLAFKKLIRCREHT

In the case of `O[C@]1(C(F)(F)F)CCCC[C@H]1Nc1ccc(F)cc1` [BAY-390], the Ki in assay [1] (read-out: Ki) was 1380 nM; in assay [1] (read-out: pKi (converted)), 1350 nM. The inhibition in [2] was -2%; in assay [8], -3.12%; in [9], 19.7%; in [10], 18%; in [11], -1%; in assay [12], -6%. The inhibition in [13] was 2%; in assay [14], 14%; in assay [15], -1%; in assay [16], 3%. Also, the IC50 in assay [3] is 81 nM (active); in [4], 19 nM (active); in assay [5], 82 nM (active); in assay [6] it was > 25000 nM (not active); in [7] it was > 25000 nM (not active).
Regarding `COc1cc(N[C@@H]2CCCC[C@]2(O)C(F)(F)F)ccc1F` [BAY-9897], the results for the inhibition in assay [17], in assay [18] and in [19] were 2.77%, -4.13% and -0.18%, respectively.

These data come from ChEMBL document CHEMBL4507328, “Data for DCP probe BAY-390” (2021).
